Results reported in ChEMBL document CHEMBL1201862, “PubChem BioAssay data set” (2004).
One block for each compound: values may come before it. Activity calls are given as the source filed them.

What was measured:
[1] = blockade of melanocortin 4 receptor signaling – cell-based, plate reader, cherry pick, counter-screen for LGR2 antagonist project, dose response (AID 743444); assay type: functional;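 further: transfected HEK 293 cells stimulated with alpha-MSH peptide; potency of inhibitors of the alpha-MSH evoked signal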
[2] = toxicity toward HepG2 liver cells – cell-based, plate reader, cherry-pick, antagonist series, cytotoxicity control, dose response (AID 743416); assay type: functional
[3] = A549 cell cytotoxicity, dose response, cytotoxicity control, plate reader, cherry-pick, antagonist series (AID 743412); assay type: functional, cell-based
cells = assay type: functional, cell-based
[4] = molecular target: T1, Nuclear receptor subfamily 0 group B member 1 (Homo sapiens, UniProt P51843); assay type: functional, cell-based;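 further: HEK293T cells transfected with SF-1 and DAX-1 plus StAR promoter luciferase reporter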
T1 sequence (P51843 whole entry): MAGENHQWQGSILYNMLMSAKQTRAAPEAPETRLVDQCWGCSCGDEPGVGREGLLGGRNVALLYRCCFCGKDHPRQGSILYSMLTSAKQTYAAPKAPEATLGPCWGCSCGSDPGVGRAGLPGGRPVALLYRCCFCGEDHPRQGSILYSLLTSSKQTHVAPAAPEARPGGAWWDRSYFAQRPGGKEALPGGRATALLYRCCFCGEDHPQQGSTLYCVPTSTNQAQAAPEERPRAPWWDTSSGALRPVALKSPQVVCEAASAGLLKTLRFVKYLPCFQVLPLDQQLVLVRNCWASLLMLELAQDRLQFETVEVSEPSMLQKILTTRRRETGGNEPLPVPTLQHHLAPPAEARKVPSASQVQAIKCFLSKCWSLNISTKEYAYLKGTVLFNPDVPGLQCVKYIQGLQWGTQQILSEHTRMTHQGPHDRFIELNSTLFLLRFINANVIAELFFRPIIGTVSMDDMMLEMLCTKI

[5] = blockers of bursicon-stimulated LGR2 cAMP reporter – cell-based, HEK293, CRE-luciferase reporter, cherry pick, set 2, dose response (AID 743343); assay type: functional;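 further: transfected cells were stimulated with diluted bursicon conditioned medium after compound addition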
[6] = molecular target: T2, Methionyl-tRNA synthetase, putative (Trypanosoma brucei brucei, UniProt Q38C91); assay type: functional, Trypanosoma brucei brucei strain 927/4 GUTat10.1
T2 sequence (Q38C91 whole entry): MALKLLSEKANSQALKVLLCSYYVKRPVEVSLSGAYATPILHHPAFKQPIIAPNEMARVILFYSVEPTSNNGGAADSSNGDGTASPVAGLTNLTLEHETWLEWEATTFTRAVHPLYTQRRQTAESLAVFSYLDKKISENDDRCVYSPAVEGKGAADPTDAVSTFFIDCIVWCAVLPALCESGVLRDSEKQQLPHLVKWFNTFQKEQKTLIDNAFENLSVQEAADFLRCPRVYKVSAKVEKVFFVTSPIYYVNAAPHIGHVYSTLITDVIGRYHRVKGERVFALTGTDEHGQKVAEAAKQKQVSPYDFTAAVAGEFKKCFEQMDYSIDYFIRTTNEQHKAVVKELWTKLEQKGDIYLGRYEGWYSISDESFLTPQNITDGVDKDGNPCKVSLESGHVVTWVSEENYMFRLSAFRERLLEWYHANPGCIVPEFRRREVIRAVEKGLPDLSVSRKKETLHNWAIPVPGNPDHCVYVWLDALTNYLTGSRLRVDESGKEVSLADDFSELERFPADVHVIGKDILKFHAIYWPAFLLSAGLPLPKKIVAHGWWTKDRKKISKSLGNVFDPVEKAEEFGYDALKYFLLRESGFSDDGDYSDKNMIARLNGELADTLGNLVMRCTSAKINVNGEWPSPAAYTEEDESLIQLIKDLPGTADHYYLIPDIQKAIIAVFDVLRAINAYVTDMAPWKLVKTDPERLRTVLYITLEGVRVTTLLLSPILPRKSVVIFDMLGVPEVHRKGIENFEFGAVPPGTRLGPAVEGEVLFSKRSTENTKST

[7] = molecular target: T2, Methionyl-tRNA synthetase, putative; assay type: functional, Trypanosoma brucei brucei strain 927/4 GUTat10.1; remark: listed apart in the source
[8] = Counterscreen for inhibitors of Trypanosoma brucei methionyl tRNA synthetase (MetRS): Luminescence-based cell-based high throughput dose response assay to identify compounds that are cytotoxic to Jurkat human T lymphocyte cells.; assay type: functional
[9] = blockers of CRF-binding protein–CRF-R2 complex – cell-based, uHTS hits, 384-well, dose response (AID 651639); assay type: functional, Homo sapiens; conditions: read-out: IC50_Mean
[10] = molecular target: T3, Corticotropin-releasing factor receptor 2/Corticotropin-releasing factor-binding protein (Homo sapiens, UniProt P24387+Q13324); assay: Dose Response confirmation of uHTS hits for small molecule antagonists of the CRF-binding protein and CRF-R2 receptor complex.; assay type: functional; conditions: read-out: IC50_Mean
T3 sequence (Q13324 whole entry): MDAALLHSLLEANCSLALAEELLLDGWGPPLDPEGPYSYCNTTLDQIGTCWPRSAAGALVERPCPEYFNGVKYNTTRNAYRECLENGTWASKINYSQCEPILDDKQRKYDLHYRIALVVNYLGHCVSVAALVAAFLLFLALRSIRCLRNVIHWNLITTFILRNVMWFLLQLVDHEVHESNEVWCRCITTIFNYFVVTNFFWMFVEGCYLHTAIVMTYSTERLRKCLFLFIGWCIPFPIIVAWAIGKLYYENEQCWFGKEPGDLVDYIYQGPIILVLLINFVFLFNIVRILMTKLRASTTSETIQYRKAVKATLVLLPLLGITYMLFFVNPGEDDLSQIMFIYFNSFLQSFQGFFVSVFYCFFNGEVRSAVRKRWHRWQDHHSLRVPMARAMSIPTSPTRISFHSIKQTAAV
T3 sequence (P24387 whole entry): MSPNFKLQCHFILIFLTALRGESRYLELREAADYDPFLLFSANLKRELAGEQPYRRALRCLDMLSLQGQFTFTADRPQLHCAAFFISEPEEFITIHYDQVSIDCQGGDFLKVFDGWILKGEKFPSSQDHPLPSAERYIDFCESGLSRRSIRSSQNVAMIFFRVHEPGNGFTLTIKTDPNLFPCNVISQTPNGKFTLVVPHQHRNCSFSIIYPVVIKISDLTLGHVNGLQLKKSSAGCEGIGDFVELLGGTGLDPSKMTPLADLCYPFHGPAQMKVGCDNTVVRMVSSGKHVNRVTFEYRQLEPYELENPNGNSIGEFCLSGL

[11] = molecular target: T3, Corticotropin-releasing factor receptor 2/Corticotropin-releasing factor-binding protein; assay: activators of CRF receptor 2 with binding protein – uHTS hits, confirmation (AID 602473); assay type: functional; conditions: read-out: EC50_Mean

SMILES: CN(C)c1ccc(NC(=O)c2cnsn2)cc1
AC50 [1]: 6.9 µM (active)
AC50 [2]: > 52 µM (inactive)
AC50 [3]: > 52 µM (inactive)
IC50 (cells): > 67.5 µM (inactive)
IC50 [4]: > 2.5 µM (active)
AC50 [5]: 4.26 µM (active)

SMILES: COc1cc2ccccc2cc1C(=O)Nc1cc(C)ccn1
IC50 (cells): > 67.6 µM (inactive)
IC50 [4]: > 67.6 µM (inactive)

SMILES: Cc1ccc(CNC(=O)CSc2n[nH]c3c4ccccc4nc-3n2)cc1
IC50 [6]: 3.38 µM (active)
IC50 [7]: 119 µM (inactive)
IC50 [8]: 83.3 µM (inactive)

IC50 [9]: 5.99 µM (active)
IC50 [10]: 6.34 µM (active)
EC50 [11]: > 53 µM (inactive)
SMILES: CC1CC(C)CN(C(=O)CSc2nc(Cc3cccs3)nc3ccccc23)C1 (centres undefined)
